“Also recorded” adds a separate entry of the source.
Columns and labels:
OVCAR3 cells [1] = assay: OVCAR3 cell density and morphology by light microscopy; assay type: cell-based, Human; settings: OVCAR3, 0.5 μM, 48 h
Description: (§1) Cell lines: Human ovarian adenocarcinoma cells employed in the study were OVCAR-3 (ATCC HTB-161), A2780 (Sigma Aldrich) and SKOV-3 (ATCC HTB-77). Human normal embryonic kidney cells, HEK 293 (ATCC CRL1573) were used. All cells were cultured in RPMI1640 supplemented with 10% heat-inactivated FBS and antibiotics. Before conducting an experiment, cells were cultured for 24 h in RPMI1640 supplemented with 1.5% heat-inactivated charcoal stripped FBS and antibiotics.
Microscopy: The cells were visualized using a microscope equipped with a camera (model IX71; Olympus) with a 20_/0.50 objective lens and Cell^A (version 3.1) Olympus software imaging.
(§2) OVCAR3 cells were collected and seeded in 96 well plates (10,000/well). The six compounds were then dissolved in DMSO and added to a final 0.5 μM concentration for 48 h of incubation. After incubation the cells were imaged by light microscopy (FIG. 13B). […] These cells were then examined for cell viability by WST-1 assay (FIG. 13C).

OVCAR3 cells [2] = assay: OVCAR3 cell viability by WST-1 assay; assay type: cell-based, Human; settings: OVCAR3, 0.5 μM, 48 h
Description: as §1
Viability: WST-1 (Roche; 10% final concentration) was incubated with cells at 37° C. for 2 h and read with a MicroELISA reader at 440 nm.
as §2

[3] = Serum and brain thyroid hormone levels after 3 weeks ICV administration by osmotic minipumps; assay type: in vivo, BALB/c mice; settings: mice; for change in brain free T3 levels (in words): one sided non-paired t test; for Serum Free T3, Mean / Serum Free T4, Mean / Brain Free T3, Mean / Brain Free T4, Mean: ICV by osmotic minipump for 3 weeks, IOP 2 mg/kg, ITYR 5 mg/kg; for Serum Free T3, Mean: vehicle 14.45; for Serum Free T4, Mean: vehicle 36.05; for Brain Free T3, Mean: vehicle 72.74; for Brain Free T4, Mean: vehicle 250.54
Description: Deaths were related to the surgical procedure.
At the end of the tests, animals were anesthetized with veterinary Pental (13.333 mg/kg) and cardiac blood was drawn for peripheral T3 (triiodothyronine) and T4 (thyroxine) levels. Brains were harvested for evaluating brain T3, T4 levels. Hormone levels in the sera and brains were measured by SunLong Biotech Mouse Ultrasensitivity total and free T3 and T4 ELISA Kits, employing producing a standard curve followed by actual measurement, in which OD levels obtained by spectrophotometer were converted, using the standard curve, to pg/ml values.

[4] = Novelty suppressed feeding test (NSFT) after 3 weeks ICV administration; settings: mice, ICV 3 weeks, compared to vehicle; ANCOVA with brain T3 as covariate
Description: The intra-cerebroventricular injection was performed via a cannula inserted as follows: first, for the chronic administration of compounds or vehicle, osmotic minipumps (Alzet model 1004 for up to 28 days administration) were employed. Empty minipumps were filled under sterile conditions with 0.1 ml of PBS or with PBS containing either one of the DIO3 inhibitors and then connected to brain infusion kits. The filled minipumps connected to the brain infusion kits were than primed in an incubator at 37° C. before being implanted into the animals. At the surgery itself, each mouse was anaesthetized by intraparenteral (i.p.) injection of anesthesia. The anesthesia solution was prepared as follows: for each 2 ml of solution, 900 μl ketamine plus 100 μl xylazine 2% was supplemented with 1000 μl of 0.9% NaCl saline solution. 70 μl of the anesthesia solution was administered i.p to a 20 gram (about 100 μl for 30 gram) weighing animal. […]
After the last treatment administration, all food was removed from the cage for 24 hours (water was available ad libitum). […] Time elapsing from the introduction of the animal into the arena until it commences eating (latency to feed), total distance move, velocity and time spent in the arena periphery (lateral 10 cm on each side) and center were recorded. […] The mean of the two ratings was calculated and used for the statistical analysis.

DIO1 = molecular target: T1, DIO1 (Homo sapiens, UniProt P49895); settings: cited from earlier work
T1 sequence (P49895 1-249): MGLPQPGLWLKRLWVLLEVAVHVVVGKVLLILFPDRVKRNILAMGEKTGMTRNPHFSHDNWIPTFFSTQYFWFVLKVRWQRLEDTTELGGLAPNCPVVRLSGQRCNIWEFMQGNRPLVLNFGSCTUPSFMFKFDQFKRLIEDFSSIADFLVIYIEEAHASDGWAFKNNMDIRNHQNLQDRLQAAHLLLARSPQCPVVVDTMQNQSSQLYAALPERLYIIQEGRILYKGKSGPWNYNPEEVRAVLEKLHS

DIO2 = DIO2 (Homo sapiens, UniProt Q92813); settings: cited from earlier work
DIO2, sequence (Q92813 whole entry, species assumed): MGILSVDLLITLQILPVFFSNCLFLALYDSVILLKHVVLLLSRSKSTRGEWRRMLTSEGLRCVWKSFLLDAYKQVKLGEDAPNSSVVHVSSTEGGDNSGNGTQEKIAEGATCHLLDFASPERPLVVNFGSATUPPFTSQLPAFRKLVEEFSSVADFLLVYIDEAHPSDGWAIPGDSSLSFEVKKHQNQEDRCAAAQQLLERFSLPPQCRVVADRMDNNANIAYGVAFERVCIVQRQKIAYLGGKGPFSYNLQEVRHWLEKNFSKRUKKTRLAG

DIO3 = molecular target: T2, DIO3 (Homo sapiens, UniProt P55073); settings: cited from earlier work
T2 sequence (P55073 1-304): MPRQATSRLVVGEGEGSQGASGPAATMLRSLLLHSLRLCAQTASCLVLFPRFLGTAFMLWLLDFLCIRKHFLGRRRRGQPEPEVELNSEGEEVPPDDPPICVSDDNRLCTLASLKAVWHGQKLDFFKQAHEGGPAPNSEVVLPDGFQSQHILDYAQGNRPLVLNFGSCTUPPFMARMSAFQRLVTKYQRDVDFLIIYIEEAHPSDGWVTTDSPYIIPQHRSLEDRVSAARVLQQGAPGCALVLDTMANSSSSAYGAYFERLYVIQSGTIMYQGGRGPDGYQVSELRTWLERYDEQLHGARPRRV

[5] = Deiodination assay: deiodination of T4 by DIO3 mimic compound A; assay type: biochemical; settings: for inhibition of the deiodinase activity (deiodination of T4) of DIO3 mimic compound A: 100 mM phosphate buffer pH 7.5, 10 mM DTT, 37° C., rT3 formation by HPLC; for IC50 for inhibiting the DIO3 mimic: mimic used in micromolar concentrations, FIG. 5
Description: The deiodination of thyroxine by compound A (a DIO3 mimetic; FIGS. 2 and 3) in the presence of various thiourea derivatives was studied. When the commonly used antithyroid drugs such as thiourea derivatives (e.g., 6-n-propyl-2-thiouracil (PTU), 6-methyl-2-thiouracil (MTU) and 1-methyl-3H-imidazole-2-thione or methimazole (MMI)) were used, no inhibition of the deiodinase activity was observed.
The deiodination reactions were carried out in 100 mM phosphate buffer (pH 7.5) with 10 mM dithiothreitol (DTT) at 37° C. Diselenol (Compound A) was freshly prepared by reducing the corresponding diselenide, with NaBH4 prior to use. The reaction products were analyzed by reverse-phase HPLC (Lichrospher C18 column, 4.6 μm, 150 mm×5 mm) with gradient elution using acetonitrile/ammonium acetate (pH 4.0) as the mobile phase. The formation of rT3 was monitored at λ=275 nm and the amounts of deiodinated products formed in the reactions in the presence or absence of test compounds were calculated by comparing the peak areas.

[6] = Water solubility (qualitative comparison); assay type: physicochemical; settings: compared with PBENZ (compound 4)

## O=C1C(Br)=C(Br)C(=O)N1CCc1ccc(O)c(O)c1 [Compound 7]
OVCAR3 cells [1]
  cell density and cell morphology: marked reduction in cell density and deformed cell morphology
OVCAR3 cells [2]
  cell viability: significant reduction in cell viability

## O=C(O)CC(C(=O)O)N1C(=O)C(Br)=C(Br)C1=O (stereo not shown) [Compound 8]
OVCAR3 cells [1]
  cell density and cell morphology: marked reduction in cell density and deformed cell morphology
OVCAR3 cells [2]
  cell viability: significant reduction in cell viability

## CCC(Cc1c(I)cc(I)c(N2C(=O)C(Br)=C(Br)C2=O)c1I)C(=O)O (stereo not shown) [Compound 6]
[3]; ICV 3 weeks, vs. vehicle
  increase in brain free T3 levels: about 46%
  change in brain free T3 levels (in words): significant increase
[3]
  Serum Free T3, Mean: 12.23 pg/mL
  Serum Free T4, Mean: 35.75 ng/mL
  Brain Free T3, Mean: 84.30 pg/mL
  Brain Free T4, Mean: 244.11 ng/mL
OVCAR3 cells [2]
  cell viability: low reduction in viability
[4]
  latency to feed in the novelty suppressed feeding test: reduced latency to feed

## O=C(O)CI [IAA, iodoacetic acid]
DIO1
  inhibition of DIO1: inhibitor
DIO2
  inhibition of DIO2: cannot inhibit
DIO3
  inhibition of DIO3: cannot inhibit

## CN1C(=O)C(Br)=C(Br)C1=O [Compound C, 2,3-dibromo-N-methylmaleimide]
[5]
  inhibition of the deiodinase activity (deiodination of T4) of DIO3 mimic compound A: inhibit; also recorded: Inhibition

## O=C(O)C(Cc1ccc(O)cc1)N1C(=O)C(Br)=C(Br)C1=O (stereo not shown) [Compound 3]
[6]
  solubility in water: more soluble in water
OVCAR3 cells [2]
  cell viability: low reduction in viability
[5]
  reaction with the DIO3 mimic: react stoichiometrically
  inhibition of the deiodinase activity (deiodination of T4) of DIO3 mimic compound A: Inhibition
  IC50 for inhibiting the DIO3 mimic: micromolar range

## Cc1cc(=O)[nH]c(=S)[nH]1 [MTU, 6-methyl-2-thiouracil]
DIO1
  inhibition of DIO1: inhibit
DIO3
  inhibition of DIO3: do not inhibit
[5]
  inhibition of the deiodinase activity (deiodination of T4) of DIO3 mimic compound A: no inhibition

## O=C1C(Br)=C(Br)C(=O)N1Cc1ccccc1 [B, 2,3-dibromo-N-benzylmaleimide]
[5]
  inhibition of the deiodinase activity (deiodination of T4) of DIO3 mimic compound A: inhibit

## O=C(O)c1ccc(N2C(=O)C(Br)=C(Br)C2=O)cc1 [Compound 4]
OVCAR3 cells [2]
  cell viability: No effect
[5]
  reaction with the DIO3 mimic: react stoichiometrically
  IC50 for inhibiting the DIO3 mimic: micromolar range

## CCCc1cc(=O)[nH]c(=S)[nH]1 [PTU, 6-n-propyl-2-thiouracil]
DIO1
  inhibition of DIO1: inhibit
DIO3
  inhibition of DIO3: do not inhibit
[5]
  inhibition of the deiodinase activity (deiodination of T4) of DIO3 mimic compound A: no inhibition

## Cn1cc[nH]c1=S [MMI, 1-methyl-3H-imidazole-2-thione, reference compound]
[5]
  inhibition of the deiodinase activity (deiodination of T4) of DIO3 mimic compound A: no inhibition

## O=C(O)C(Cc1cc(I)c(O)c(I)c1)N1C(=O)C(Br)=C(Br)C1=O (stereo not shown) [Compound 5]
[3]; ICV 3 weeks, vs. vehicle
  change in brain free T3 levels (in words): not significantly increased
[3]
  Serum Free T3, Mean: 12.33 pg/mL
  Serum Free T4, Mean: 37.00 ng/mL
  Brain Free T3, Mean: 81.98 pg/mL
  Brain Free T4, Mean: 262.86 ng/mL
OVCAR3 cells [1]
  cell density and cell morphology: marked reduction in cell density and deformed cell morphology
OVCAR3 cells [2]
  cell viability: significant reduction in cell viability
[4]
  latency to feed in the novelty suppressed feeding test: reduced latency to feed

From patent publication US11091434B2, “Type III deiodinase inhibitors and uses thereof” (HADASIT MEDICAL RESEARCH SERVICES AND DEVELOPMENT LTD., priority 2014, dated 2021)
